Peptide text beside a SMILES is read from it. * marks the point of attachment. Biotin = O=C1N[C@H]2[C@H](CS[C@H]2CCCCC(=O)*)N1
Legend:
[1] = system: T98G human glioblastoma cells; experiment: Disintegration of the microtubule network in T98G cells (anti-tubulin immunostaining, cell counting); type: cell-based; details: T98G cells, 10 µM biotinylated peptide, 6 hours; anti-tubulin immunostaining; minimum 200 cells per experiment; mean ± S.E.M., triplicated
Experimental: (§1) Cells containing the biotinylated peptide were detected using Alexa-labeled avidin (green fluorescence) and those displaying a normal or a destroyed MT network were detected with an anti-tubulin antibody (red fluorescence) ( Figure 1A-B ). Then, we counted a minimum of 200 cells per slide containing or not the peptide, and with a normal or destroyed microtubule network ( Figure 1C ). As illustrated on Figure 1A glioblastoma cells contain a rich MT network. […] Cells were plated on cover slips and cultured in media containing biotinylated peptides (10 μM) for 6 hours. […] The cells were then incubated during 10 min in a 0.5% triton X-100 permeabilization solution, and washed 3 times in PBS. Next, they were incubated in a blocking solution (PBS 5% BSA) for 15 min, then incubated with mouse anti-ß-tubulin antibody (Sigma) 1/200 overnight. Tubulin and biotinylated peptides were localized using respectively Alexa 568 nm anti-mouse antibody and streptavidin Alexa 488 nm (Molecular Probes) 1/200 for 1 hour, followed by washing in PBS. […] Sigma) for 5 min, washed twice with PBS, then cover slips were mounted with an antifading solution. Observations were performed with an Olympus confocal microscope (BX50) using Fluoview.3.1. Software or a Leica DMI6000 inverted microscope and analyzed with Metamorph 7.1.7.0. software. We counted cells containing the peptide and cells displaying a destroyed MT network. Experiments were repeated at least three times, and a minimum of 200 cells was scored during each experiment.

[2] = system: T98G human glioblastoma cells; experiment: Peptide incorporation into T98G cells (immunocytochemistry, cell counting); type: cell-based; details: 6 hours; for Peptide incorporation (% of cells): T98G cells, 10 µM biotinylated peptide, Alexa-labeled avidin/streptavidin fluorescence microscopy, minimum 200 cells per experiment, mean ± S.E.M., triplicated
Experimental: as §1

CC(C)C[C@H](NC(=O)[C@H](CO)NC(=O)[C@H](CO)NC(=O)[C@H](CO)NC(=O)[C@@H](NC(=O)[C@@H]1CCCN1C(=O)[C@H](C)NC(=O)[C@H](CO)NC(=O)[C@H](Cc1ccc(O)cc1)NC(=O)[C@H](CO)NC(=O)[C@H](CO)NC(=O)[C@H](Cc1ccc(O)cc1)NC(=O)CCCC[C@@H]1SC[C@@H]2NC(=O)N[C@@H]21)C(C)C)C(=O)N[C@@H](CO)C(=O)N[C@H](C(=O)N[C@@H](CCCNC(=N)N)C(=O)N[C@@H](CCCNC(=N)N)C(=O)N[C@@H](C)C(=O)N[C@@H](Cc1ccc(O)cc1)C(=O)N[C@@H](CO)C(=O)N[C@@H](CO)C(=O)N[C@@H](CO)C(=O)N[C@@H](CO)C(=O)NCC(=O)N[C@@H](CO)C(N)=O)C(C)C [Ser17Ala] (Biotin-YSSYSAPVSSSLSVRRAYSSSSGS-NH2)
Disintegration of MT (% of cells) [1]: 18.1±4.4 % of cells | Peptide incorporation (% of cells) [2]: 4.6±1.8 % of cells

CC(C)C[C@H](NC(=O)[C@H](CO)NC(=O)[C@H](CO)NC(=O)[C@H](CO)NC(=O)[C@@H](NC(=O)[C@@H]1CCCN1C(=O)[C@H](C)NC(=O)[C@H](CO)NC(=O)[C@H](Cc1ccc(O)cc1)NC(=O)[C@H](C)NC(=O)[C@H](CO)NC(=O)[C@H](Cc1ccc(O)cc1)NC(=O)CCCC[C@@H]1SC[C@@H]2NC(=O)N[C@@H]21)C(C)C)C(=O)N[C@@H](CO)C(=O)N[C@H](C(=O)N[C@@H](CCCNC(=N)N)C(=O)N[C@@H](CCCNC(=N)N)C(=O)N[C@@H](CO)C(=O)N[C@@H](Cc1ccc(O)cc1)C(=O)N[C@@H](CO)C(=O)N[C@@H](CO)C(=O)N[C@@H](CO)C(=O)N[C@@H](CO)C(=O)NCC(=O)N[C@@H](CO)C(N)=O)C(C)C [Ser3Ala] (Biotin-YSAYSAPVSSSLSVRRSYSSSSGS-NH2)
Disintegration of MT (% of cells) [1]: 19.1±0.9 % of cells | Peptide incorporation (% of cells) [2]: 0.8±1.2 % of cells

CC(C)C[C@H](NC(=O)[C@H](CO)NC(=O)[C@H](CO)NC(=O)[C@H](CO)NC(=O)[C@@H](NC(=O)[C@@H]1CCCN1C(=O)[C@H](C)NC(=O)[C@H](CO)NC(=O)[C@H](Cc1ccc(O)cc1)NC(=O)[C@H](CO)NC(=O)[C@H](CO)NC(=O)[C@H](Cc1ccc(O)cc1)NC(=O)CCCC[C@@H]1SC[C@@H]2NC(=O)N[C@@H]21)C(C)C)C(=O)N[C@@H](CO)C(=O)N[C@H](C(=O)N[C@@H](CCCNC(=N)N)C(=O)N[C@@H](CCCNC(=N)N)C(=O)N[C@@H](CO)C(=O)N[C@@H](Cc1ccc(O)cc1)C(=O)N[C@@H](CO)C(=O)N[C@@H](CO)C(=O)N[C@@H](C)C(=O)N[C@@H](CO)C(=O)NCC(=O)N[C@@H](CO)C(N)=O)C(C)C [Ser21Ala] (Biotin-YSSYSAPVSSSLSVRRSYSSASGS-NH2)
Disintegration of MT (% of cells) [1]: 31.6±5.1 % of cells | Peptide incorporation (% of cells) [2]: 55.4±5.9 % of cells

CC(C)C[C@H](NC(=O)[C@H](CO)NC(=O)[C@H](CO)NC(=O)[C@H](CO)NC(=O)[C@H](C)NC(=O)[C@@H]1CCCN1C(=O)[C@H](C)NC(=O)[C@H](CO)NC(=O)[C@H](Cc1ccc(O)cc1)NC(=O)[C@H](CO)NC(=O)[C@H](CO)NC(=O)[C@H](Cc1ccc(O)cc1)NC(=O)CCCC[C@@H]1SC[C@@H]2NC(=O)N[C@@H]21)C(=O)N[C@@H](CO)C(=O)N[C@H](C(=O)N[C@@H](CCCNC(=N)N)C(=O)N[C@@H](CCCNC(=N)N)C(=O)N[C@@H](CO)C(=O)N[C@@H](Cc1ccc(O)cc1)C(=O)N[C@@H](CO)C(=O)N[C@@H](CO)C(=O)N[C@@H](CO)C(=O)N[C@@H](CO)C(=O)NCC(=O)N[C@@H](CO)C(N)=O)C(C)C [Val8Ala] (Biotin-YSSYSAPASSSLSVRRSYSSSSGS-NH2)
Disintegration of MT (% of cells) [1]: 23.6±2.1 % of cells | Peptide incorporation (% of cells) [2]: 9.9±3.4 % of cells

CC(C)C[C@H](NC(=O)[C@H](CO)NC(=O)[C@H](CO)NC(=O)[C@H](CO)NC(=O)[C@@H](NC(=O)[C@@H]1CCCN1C(=O)[C@H](C)NC(=O)[C@H](C)NC(=O)[C@H](Cc1ccc(O)cc1)NC(=O)[C@H](CO)NC(=O)[C@H](CO)NC(=O)[C@H](Cc1ccc(O)cc1)NC(=O)CCCC[C@@H]1SC[C@@H]2NC(=O)N[C@@H]21)C(C)C)C(=O)N[C@@H](CO)C(=O)N[C@H](C(=O)N[C@@H](CCCNC(=N)N)C(=O)N[C@@H](CCCNC(=N)N)C(=O)N[C@@H](CO)C(=O)N[C@@H](Cc1ccc(O)cc1)C(=O)N[C@@H](CO)C(=O)N[C@@H](CO)C(=O)N[C@@H](CO)C(=O)N[C@@H](CO)C(=O)NCC(=O)N[C@@H](CO)C(N)=O)C(C)C [Ser5Ala] (Biotin-YSSYAAPVSSSLSVRRSYSSSSGS-NH2)
Disintegration of MT (% of cells) [1]: 23.6±1.6 % of cells | Peptide incorporation (% of cells) [2]: 16.0±1.4 % of cells

CC(C)[C@H](NC(=O)[C@H](CO)NC(=O)[C@H](C)NC(=O)[C@H](CO)NC(=O)[C@H](CO)NC(=O)[C@H](CO)NC(=O)[C@@H](NC(=O)[C@@H]1CCCN1C(=O)[C@H](C)NC(=O)[C@H](CO)NC(=O)[C@H](Cc1ccc(O)cc1)NC(=O)[C@H](CO)NC(=O)[C@H](CO)NC(=O)[C@H](Cc1ccc(O)cc1)NC(=O)CCCC[C@@H]1SC[C@@H]2NC(=O)N[C@@H]21)C(C)C)C(=O)N[C@@H](CCCNC(=N)N)C(=O)N[C@@H](CCCNC(=N)N)C(=O)N[C@@H](CO)C(=O)N[C@@H](Cc1ccc(O)cc1)C(=O)N[C@@H](CO)C(=O)N[C@@H](CO)C(=O)N[C@@H](CO)C(=O)N[C@@H](CO)C(=O)NCC(=O)N[C@@H](CO)C(N)=O [Leu12Ala] (Biotin-YSSYSAPVSSSASVRRSYSSSSGS-NH2)
Disintegration of MT (% of cells) [1]: 15.5±2.8 % of cells | Peptide incorporation (% of cells) [2]: 0 % of cells

CC(C)C[C@H](NC(=O)[C@H](CO)NC(=O)[C@H](CO)NC(=O)[C@H](C)NC(=O)[C@@H](NC(=O)[C@@H]1CCCN1C(=O)[C@H](C)NC(=O)[C@H](CO)NC(=O)[C@H](Cc1ccc(O)cc1)NC(=O)[C@H](CO)NC(=O)[C@H](CO)NC(=O)[C@H](Cc1ccc(O)cc1)NC(=O)CCCC[C@@H]1SC[C@@H]2NC(=O)N[C@@H]21)C(C)C)C(=O)N[C@@H](CO)C(=O)N[C@H](C(=O)N[C@@H](CCCNC(=N)N)C(=O)N[C@@H](CCCNC(=N)N)C(=O)N[C@@H](CO)C(=O)N[C@@H](Cc1ccc(O)cc1)C(=O)N[C@@H](CO)C(=O)N[C@@H](CO)C(=O)N[C@@H](CO)C(=O)N[C@@H](CO)C(=O)NCC(=O)N[C@@H](CO)C(N)=O)C(C)C [Ser9Ala] (Biotin-YSSYSAPVASSLSVRRSYSSSSGS-NH2)
Disintegration of MT (% of cells) [1]: 27.1±4.8 % of cells | Cell penetration / internalization in T98G cells (in words) ([2]; 10 µM, immunocytochemistry, compared to original NFL-TBS.40-63): penetrated in cells significantly although to a much lesser extent than the wt peptide | Peptide incorporation (% of cells) [2]: 23.3±8.4 % of cells

CC(C)[C@H](NC(=O)[C@H](CO)NC(=O)[C@@H](NC(=O)[C@H](CO)NC(=O)[C@H](CO)NC(=O)[C@H](CO)NC(=O)[C@@H](NC(=O)[C@@H]1CCCN1C(=O)[C@H](C)NC(=O)[C@H](CO)NC(=O)[C@H](Cc1ccc(O)cc1)NC(=O)[C@H](CO)NC(=O)[C@H](CO)NC(=O)[C@H](Cc1ccc(O)cc1)NC(=O)CCCC[C@@H]1SC[C@@H]2NC(=O)N[C@@H]21)C(C)C)C(C)C)C(=O)N[C@@H](CCCNC(=N)N)C(=O)N[C@@H](CCCNC(=N)N)C(=O)N[C@@H](CO)C(=O)N[C@@H](Cc1ccc(O)cc1)C(=O)N[C@@H](CO)C(=O)N[C@@H](CO)C(=O)N[C@@H](CO)C(=O)N[C@@H](CO)C(=O)NCC(=O)N[C@@H](CO)C(N)=O [Leu12Val] (Biotin-YSSYSAPVSSSVSVRRSYSSSSGS-NH2)
Disintegration of MT (% of cells) [1]: 43.8±1.7 % of cells | Peptide incorporation (% of cells) [2]: 58.6±5.0 % of cells
